Test results: patent US20250235531A1, “MUCOSAL ADMINISTRATION METHODS AND FORMULATIONS” (priority 2022, published 2025)

What was measured:
[1] = test system: healthy HBE cells; assay: LNP cellular uptake and protein expression in healthy HBE cells; type: cell-based, human; conditions: NPI-Luc mRNA, LNP core Compound 18, DSPC, Cholesterol, and DMG-PEG 2K
Experimental: (§1) NP-Luc is a dual read reporter made by adding a 5×V5 tag and a C-myc nuclear localization sequence at the N-terminus of Firefly Luciferase to enhance the signal to noise ratio. Protein expression can be detected using OneGLo assays with luminescence readout or by immunofluorescence with anti-V antibodies. LNP cellular uptake and protein expression was evaluated according to the procedure outlined in Example 5.

[2] = test system: respiratory epithelium (trachea, bronchi); assay: LNP protein expression in rat respiratory epithelium after single intratracheal dose (anti-V5 IHC); conditions: intratracheal ~1.2 mpk, NPI-Luc mRNA, LNP core Compound 18, DSPC, Cholesterol, and DMG-PEG 2K
Experimental: (§2) Animals are anesthetized under isoflurane. The tongue is displaced and a small diameter cannula is inserted into the trachea (oropharyngeal route). The cannula tip is passed through the vocal chords, down the trachea so that the tip is very near, but not touching, the carina. Upon placement, 50 μL (mouse) or 200 μL (rat) of formulation is infused into the lungs. After 30 seconds upright, animads are released into a recovery cage and returned to their respective cages once recovered.
(§3) Trachea, lungs and for the aerosol study nasal cavities, nasopharynx and larynx are collected for analysis. Lungs are inflated with 10% NBF fixative and trachea tied off to maintain inflation. Lungs are removed en bloc with attached trachea, bronchi and lobes. […]
(§4) IHC was performed on FFPE sections using the Leica Bond RX autostainer. NPI-Luc protein expression was detected by anti-V5 tag antibody at a 1:100 dilution. V5 antibody was detected with the Bond Polymer Refine Detection kit followed by hematoxylin and bluing reagent counterstain. […] Trachea, lung and/or nasal cavity images were analyzed to capture total tracheal, bronchial or nasal epithelial cells and data expressed when appropriate as % V5 positive epithelial cells per total epithelial cells per animal. […]

[3] = test system: HeLa; assay: Protein expression in human cervical cancer epithelial cell (HeLa) model, NPI-Luc mRNA LNPs; type: cell-based; conditions: LNP core Compound 18, DSPC
Experimental: as §1, with “NPI-Luc” for “NP-Luc”, “anti-V5” for “anti-V”, “Protein” for “LNP cellular uptake and protein”, “6. The LNPs are dosed in 4 wells and the average response was reported. For the HeLa assay the luminescence read (RLU) were normalized to cell counts.” for “5.”

[4] = Nanoparticle zeta potential (Malvern Zetasizer); type: physicochemical; conditions: [mRNA] 0.01 mg/mL in 0.1×PBS, core LNP Compound 18, DSPC, Cholesterol, and DMG-PEG 2K
Experimental: LNPs were prepared according to Example 1. Zeta potential was measured by diluting LNPs to [mRNA]0.01 mg/mL in 0.1×PBS on a Malvern Zetasizer (Nano ZS).

[5] = test system: respiratory epithelium (trachea, bronchi); assay: LNP protein expression in mouse respiratory epithelium after single intratracheal dose (anti-V5 IHC); conditions: intratracheal ~0.7 mpk, NPI-Luc mRNA, LNP core Compound 18, DSPC, Cholesterol, and DMG-PEG 2K
Experimental: as §2, §3, §4

[6] = Luciferase mRNA nanoparticle biophysical data (DLS diameter and PDI, Ribogreen encapsulation); type: physicochemical; conditions: luciferase mRNA nanoparticles (IL1:DSPC:cholesterol:PEG-DMG-2K) modified with the lipid amine; for Diameter (nm) / PDI: DLS; for % Encapsulation (Ribogreen): Ribogreen assay
Experimental: Lipids are dissolved in ethanol at a concentration of 24 mg/mL and molar ratios of 49.0:11.2:39.3:0.5 (IL1:DSPC:cholesterol:PEG-DMG-2K) and mixed with the acidification buffer (45 mM acetate buffer at pH 4). The lipid solution and acidification buffer are mixed using a multi-inlet vortex mixer at a 3:7 volumetric ratio of lipid:buffer for mixer 1 and mixer 2 and a 1:3 volumetric ratio of lipid:buffer (25% ethanol) for mixer 3. After a 5 second residence time, the resulting nanoparticles are mixed with 55 mM sodium acetate at pH 5.6 at a volumetric ratio of 5:7 of nanoparticle:buffer. See Table 24 for mixing parameters. The resulting dilute nanoparticles are then buffer exchanged and concentrated using tangential flow filtration (TFF) into a final buffer containing 5 mM sodium acetate pH 5.0. Then a 70% sucrose solution in 5 mM acetate buffer at pH 5 is subsequently added.
The resulting nanoparticles at a lipid concentration of 7.33 mg/mL in 5 mM acetate (pH 5) and 75 g/L sucrose are mixed with mRNA (luciferease) at a concentration of 0.625 mg/mL in 42.5 mM sodium acetate pH 5.0, with N:P of 4.93. The nanoparticle solution and nanoparticles are mixed using a multi-inlet vortex mixer at a 3:2 volumetric ratio of nanoparticle:mRNA. Once loaded with mRNA, these intermediate nanoparticles undergo a 300 second residence time prior addition of neutralization buffer containing 120 mM TRIS pH 8.12 at a volumetric ratio of 5:1 of nanoparticle:buffer.
For HeLa studies evaluating luciferase protein expression, PEG-DMG-2K dissolved in a 20 mM TRIS buffer (pH 7.5) is added to the neutralized intermediate nanoparticle solution at a ratio of 1:6, bringing the solution to the final molar ratios of IL1:DSPC:cholesterol:PEG-DMG-2K of 48.5:11.1:38.9:1.5%. This nanoparticle formulation is then modified with lipid amines. In a typical example, nanoparticle formulation at a concentration of 0.18 mg/mL mRNA and a 0.56 mL volume is modified with lipid amine SA50 (467.2 nmol) prepared in buffer containing 20 mM IRIS, 14.3 mM sodium acetate, 32 g/L sucrose and 140 mM NaCl—pH 7.5 at a volumetric ratio of 1:1 of nanoparticle: buffer.
Resulting nanoparticle suspensions are filtered through a 0.8/0.2 μm capsule filter and filled into glass vials at an mRNA strength of about 0.1-1 mg/mL Biophysical data (Diameter and PDI from DLS measurements and % Encapsulation using Ribogreen assay) for luciferase mRNA nanoparticles with lipid amines is shown in Table 26.

CC(C)CCC[C@@H](C)[C@H]1CC[C@H]2[C@@H]3CC=C4C[C@@H](OC(=O)N(CCCN)CCCCNCCCN)CC[C@]4(C)[C@H]3CC[C@]12C [SA3]
Average accumulation of LNP in healthy HBE (% positive cells) [1]: 43.7 % positive cells | Average protein expression in healthy HBE (% V5 positive cells) [1]: 9.4 % V5 positive cells | Average % V5 positive cells/total cells ([2]; Rat Bronchi (left and right lung)): 4.95 % V5 positive cells/total cell | Average % V5 positive cells/total cells ([2]; Rat Trachea): 2.97 % V5 positive cells/total cell | Average protein expression per cell (RLU per cell) ([3]; Cholesterol, and DMG-PEG 2K): 111.0 RLU per cell | Zeta Potential (mV) [4]: 10.6 mV | Average % V5 positive cells/total cells ([5]; Mouse Bronchi (left lung)): 9.33 % V5 positive cells/total cell | Average % V5 positive cells/total cells ([5]; Mouse Trachea): 40.7 % V5 positive cells/total cell

CC(C)CCC[C@@H](C)[C@H]1CC[C@H]2[C@@H]3CC=C4C[C@@H](OC(=O)NCCN(C)C)CC[C@]4(C)[C@H]3CC[C@]12C [SA4]
Average protein expression per cell (RLU per cell) ([3]; Cholesterol, and Compound 428): 248.5 RLU per cell

CC(C)c1ccc2c(c1)CC[C@H]1[C@](C)(CNC(=O)CCN(C)C)CCC[C@]21C [SA16]
Average protein expression per cell (RLU per cell) ([3]; Cholesterol, and Compound 428): 14.5 RLU per cell

CC(C)CCC[C@@H](C)[C@H]1CC[C@H]2[C@@H]3CC=C4C[C@@H](OC(=O)NCCNC(=N)N)CC[C@]4(C)[C@H]3CC[C@]12C [SA23]
Average accumulation of LNP in healthy HBE (% positive cells) ([1]; β-sitosterol): 34.3 % positive cells | Average protein expression in healthy HBE (% V5 positive cells) ([1]; β-sitosterol): 9.1 % V5 positive cells | Zeta Potential (mV) ([4]; β-sitosterol): 12.7 mV

CC(C)CCC[C@@H](C)[C@H]1CC[C@H]2[C@@H]3CC=C4C[C@@H](OC(=O)N(CCCN)CCCCN)CC[C@]4(C)[C@H]3CC[C@]12C [SA29]
Average accumulation of LNP in healthy HBE (% positive cells) ([1]; β-sitosterol): 56.2 % positive cells | Average protein expression in healthy HBE (% V5 positive cells) ([1]; β-sitosterol): 12.1 % V5 positive cells | Zeta Potential (mV) ([4]; β-sitosterol): 8.3 mV

CC(C)CCC[C@@H](C)[C@H]1CC[C@H]2[C@@H]3CC=C4C[C@@H](OC(=O)NCCCNCCCCN)CC[C@]4(C)[C@H]3CC[C@]12C [SA30]
Average accumulation of LNP in healthy HBE (% positive cells) ([1]; β-sitosterol): 49.9 % positive cells | Average protein expression in healthy HBE (% V5 positive cells) ([1]; β-sitosterol): 11.9 % V5 positive cells | Zeta Potential (mV) ([4]; β-sitosterol): 8.7 mV

CC(C)CCC[C@@H](C)[C@H]1CC[C@H]2[C@@H]3CC=C4C[C@@H](OC(=O)CCC(=O)N(CCCN)CCCCN)CC[C@]4(C)[C@H]3CC[C@]12C [SA31]
Average accumulation of LNP in healthy HBE (% positive cells) ([1]; β-sitosterol): 43.2 % positive cells | Average protein expression in healthy HBE (% V5 positive cells) ([1]; β-sitosterol): 11.1 % V5 positive cells | Zeta Potential (mV) ([4]; β-sitosterol): 8.6 mV

CC[C@H](CC[C@@H](C)[C@H]1CC[C@H]2[C@@H]3CC=C4C[C@@H](OC(=O)N(CCCCNCCC(C)N)CCC(C)N)CC[C@]4(C)[C@H]3CC[C@]12C)C(C)C.Cl.Cl.Cl (stereo partly drawn) [SA111, (3S,8S,9S,10R,13R,14S,17R)-17-((2R,5R)-5-ethyl-6-methylheptan-2-yl)-10,13-dimethyl-2,3,4,7,8,9,10,11,12,13,14,15,16,17-tetradecahydro-1H-cyclopenta[a]phenanthren-3-yl (3-aminobutyl)(4-((3-aminobutyl)amino)butyl)carbamate trihydrochloride]
Diameter (nm) [6]: 76 nm | PDI [6]: 0.18 | % Encapsulation (Ribogreen) [6]: 99.6%

CC[C@H](CC[C@@H](C)[C@H]1CC[C@H]2[C@@H]3CC=C4C[C@@H](OC(=O)N(CCC5CC(N)C5)CCC5CC(N)C5)CC[C@]4(C)[C@H]3CC[C@]12C)C(C)C.Cl.Cl (stereo partly drawn) [SA186, (3S,8S,9S,10R,13R,14S,17R)-17-((2R,5R)-5-ethyl-6-methylheptan-2-yl)-10,13-dimethyl-2,3,4,7,8,9,10,11,12,13,14,15,16,17-tetradecahydro-1H-cyclopenta[a]phenanthren-3-yl bis(2-(3-aminocyclobutyl)ethyl)carbamate dihydrochloride]
Diameter (nm) [6]: 73 nm | PDI [6]: 0.14 | % Encapsulation (Ribogreen) [6]: 99.3%

CC[C@H](CC[C@@H](C)[C@H]1CC[C@H]2[C@@H]3CC=C4C[C@@H](SSCCC(=O)N(CCC5CC(N)C5)CCC5CC(N)C5)CC[C@]4(C)[C@H]3CC[C@]12C)C(C)C.Cl.Cl (stereo partly drawn) [SA187, N,N-bis(2-(3-aminocyclobutyl)ethyl)-3-(((3S,8S,9S,10R,13R,14S,17R)-17-((2R,5R)-5-ethyl-6-methylheptan-2-yl)-10,13-dimethyl-2,3,4,7,8,9,10,11,12,13,14,15,16,17-tetradecahydro-1H-cyclopenta[a]phenanthren-3-yl)disulfaneyl)propanamide dihydrochloride]
Diameter (nm) [6]: 73 nm | PDI [6]: 0.17 | % Encapsulation (Ribogreen) [6]: 99.0%

CC(C)CCC[C@@H](C)[C@H]1CC[C@H]2[C@@H]3CC=C4C[C@@H](OC(=O)CCCC(=O)N(CCC5CC(N)C5)CCC5CC(N)C5)CC[C@]4(C)[C@H]3CC[C@]12C.Cl.Cl (stereo partly drawn) [SA188, (3S,8S,9S,10R,13R,14S,17R)-10,13-dimethyl-17-((R)-6-methylheptan-2-yl)-2,3,4,7,8,9,10,11,12,13,14,15,16,17-tetradecahydro-1H-cyclopenta[a]phenanthren-3-yl 5-(bis(2-(3-aminocyclobutyl)ethyl)amino)-5-oxopentanoate dihydrochloride]
Diameter (nm) [6]: 80 nm | PDI [6]: 0.13 | % Encapsulation (Ribogreen) [6]: 99.6%

CC[C@H](CC[C@@H](C)[C@H]1CC[C@H]2[C@@H]3CC=C4C[C@@H](OC(=O)N(CC56CC(N)(C5)C6)CC56CC(N)(C5)C6)CC[C@]4(C)[C@H]3CC[C@]12C)C(C)C.Cl.Cl [SA189, (3S,8S,9S,10R,13R,14S,17R)-17-((2R,5R)-5-ethyl-6-methylheptan-2-yl)-10,13-dimethyl-2,3,4,7,8,9,10,11,12,13,14,15,16,17-tetradecahydro-1H-cyclopenta[a]phenanthren-3-yl bis((3-aminobicyclo[1.1.1]pentan-1-yl)methyl)carbamate dihydrochloride]
Diameter (nm) [6]: 78 nm | PDI [6]: 0.33 | % Encapsulation (Ribogreen) [6]: 98.1%
